Test results taken from patent US9328369B2, “Process for production of useful substance, and surfactant for use in the process” (priority 2009, dated 2016).

Test system: Escherichia coli (α)
Experiment: Screening of secretion efficiency, alkaline phosphatase expressing strain
Type: cell-based
Conditions: surfactant 1 wt %; 37° C., 1 hour; ELISA, anti-His-tag antibody
Text: An alkaline phosphatase (phoA) gene of an Escherichia coli strain W3110 was amplified by the PCR method using primers 1 and 2 (Table 4). After being treated with restriction enzymes NdeI and BamHI, a PCR fragment was bound with an NdeI restriction enzyme site and with a BamHI restriction enzyme site of a pET-22b plasmid (product of Novagen). Then, the plasmid was transformed into an AG1 (DE3) Escherichia coli strain formed by transforming an Escherichia coli strain AG1 (product of TOYOBO Co., LTD.) with use of a λDE3 Lysogenization Kit (product of Novagen). In this manner, an alkaline phosphatase expressing strain (a) was formed.
A pdxA gene of an Escherichia coli strain W3110 was amplified by the PCR method using primers 5 and 6 (Table 4). After being treated with restriction enzymes NdeI and BamHI, a PCR fragment was bound to an NdeI restriction enzyme site and a BamHI restriction enzyme site of a pET-22b plasmid (product of Novagen). Then, the plasmid was transformed into an AG1 (DE3) Escherichia coli strain to form a PdxA expressing strain (γ).
In this manner, culture solutions were prepared.
(2) The strains were collected using a centrifuge (4,000 G, 4° C., 15 minutes). Each of the collected Escherichia coli strains was resuspended in 1 mL of a TB culture solution (product of Difco) and chloramphenicol (30 mg/L) and IPTG (100 μM) were added thereto. Shake culture at 37° C. for 3 hours induced expression of phoA, torA, and pdxA.
(3) Subsequently, harvesting using a centrifuge was carried out again (4,000 G, 4° C., 15 minutes). Each of the collected Escherichia coli strains was resuspended in 2.5 mL of a Tris-NaCl buffer solution (50 mM Tris (pH 7.5), 100 mM NaCl). The resulting solution was divided into 25-μL portions at a time to be mixed with 25 μL of a Tris-NaCl buffer solution.
(4) Then, the solution was allowed to stand at 37° C. for 1 hour. The supernatant solution was collected and diluted in a Tris-NaCl buffer solution to a proper concentration. Here, the quantification of the recombinant protein in the resulting solution was carried out by ELISA assay with use of an anti-His-tag antibody. The sample prior to the centrifugation in the process (3) was treated with ultrasonic waves (200 W, 10 minutes) and the quantification of the recombinant protein therein was similarly carried out by ELISA assay with use of an anti-His-tag antibody. The ratio of lysed bacteria was obtained with use of Escherichia coli (γ), and the secretion efficiencies of the recombinant proteins of Escherichia coli (α) and (β) were calculated by using the following formula. […] Secretion efficiency (%)=100×{(X/Y)−Z}.
In the formula, “X” represents the amount of the recombinant protein in the culture solution after removal of bacterial cells by centrifugation in the case of using Escherichia coli (α) or (β).
“Y” represents the amount of the whole recombinant protein in the culture solution in the case of using Escherichia coli (α) or (β).
“Z” represents the ratio of lysed bacteria obtained with use of Escherichia coli (γ), which is determined by the following formula: Z=Z1/Z2.
In the formula, “Z1” represents the amount of the recombinant protein in the culture solution which remains after removal of bacterial cells by centrifugation in the case of using Escherichia coli (γ).
“Z2” represents the amount of the whole recombinant protein in the culture solution in the case of using Escherichia coli (γ).
Escherichia coli (α) and (β) were each cultured in the same manner as in the above case except that polyoxyethylene (3 mol) tridecyl ether sodium acetate as the surfactant (A) was added right after the resuspension of the Escherichia coli in the buffer solution in the process (3) of A-0, in an amount of 1% by weight on the basis of the weight of the suspension of the bacterium. The secretion efficiency was calculated according to the above-mentioned definition.

| Compound | Secretion efficiency (%) Escherichia coli (α) |
| --- | --- |
| 1,2-dodecandiol monooxyethylene adduct [A-4] | 90.7% |
| 2-alkyl-N-carboxymethyl-N-hydroxyethyl imidazolinium betaine [A-23] | 20.2% |
| CCCCCCCCCCCCCCCCCC[N+](C)(C)C.[Cl-] [A-15, Stearyl trimethyl ammonium chloride] | 37.3% |
| CCCCCCCCCC[N+](C)(C)CCCCCCCCCC.[Cl-] [A-20, Didecyl dimethylammonium chloride] | 28.7% |
| CCCCCCCCCC[N+](C)(C)CCCCCCCCCC.[Cl-] [A-48, Didecyl dimethyl ammonium chloride] | 2.7% |
| CCCCCCCCCCCCCCCCCC[N+](C)(C)CCCCCCCCCCCCCCCCCC.[Cl-] [A-50, Distearyl dimethyl ammonium chloride] | 2.3% |
| CCCCCCCCCCCCOS(=O)(=O)[O-].[Na+] [A-69, Sodium lauryl sulfate] | 0.0% |
| C[C@H](CCC(=O)[O-])[C@H]1CC[C@H]2[C@@H]3[C@H](O)C[C@@H]4C[C@H](O)CC[C@]4(C)[C@H]3C[C@H](O)[C@]12C.[Na+] [A-82, sodium cholate] | 0.0% |
| Behenylamide propyldimethylamine [A-47] | 2.8% |
| Didecyl dimethyl ammonium adipate [A-42] | 4.3% |
| EO 3 mol adduct of higher alcohol (C11 to C 15) [A-10] | 56.9% |
| EO 6 mol adduct of decyl alcohol [A-12] | 53.1% |
| EO 10 mol adduct of cured castor oil [A-55] | 1.7% |
| EO 10 mol adduct of oleyl alcohol [A-59] | 1.1% |
| EO 20 mol adduct of sorbitan trioleate [A-41] | 4.6% |
| EO 24 mol adduct trilaurate of trimethylolpropane [A-64] | 0.5% |
| EO 25 mol adduct of cured castor oil [A-44] | 3.0% |
| Ester thiodipropionate of polyoxyethylene (3 mol) alkyl (C12, C15) ether [A-25] | 11.8% |
| Isostearyl alcohol polyoxyethylene (5 mol) adduct sodium ether carboxylate [A-52] | 2.2% |
| Isostearylalcohol polyoxyethylene (5 mol) sodium phosphate [A-31] | 6.2% |
| Lanolin fatty acid aminopropyl ethylene dimethyl ammonium ethyl sulfate [A-28] | 9.2% |
| Lauryl diphenyl ether sodium disulfonate [A-74] | 0.0% |
| Oleic acid 4.5 mol ester of sorbitol EO 40 mol adduct [A-63] | 0.7% |
| PO 20 mol and EO 9 mol adduct of ethylhexanol [A-51] | 2.3% |
| Palm oil fatty acid diethanol amide [A-2] | 97.5% |

| Compound | Secretion efficiency (%) Escherichia coli (α) |
| --- | --- |
| Palm oil fatty acid sorbitan [A-54] | 1.7% |
| Polyethylene glycol diisostearate [A-22] | 26.2% |
| Polyethylene glycol diisostearate [A-38] | 5.1% |
| Polyethylene glycol monoisostearate [A-29] | 7.6% |
| Polyethylene glycol monoisostearate [A-40] | 4.9% |
| Polyoxyethylene (3 mol) lauryl ether acetate [A-24] | 16.1% |
| Polyoxyethylene (20 mol) sorbitan monolaurate [A-56] | 1.6% |
| Polyoxyethylene (20 mol) sorbitan monooleate [A-37] | 5.2% |
| Polyoxyethylene (Mw = 190) stearic acid diester [A-33] | 5.5% |
| Polyoxyethylene (Mw = 200) oleate monoester [A-35] | 5.3% |
| Polyoxyethylene (Mw = 300) oleate diester [A-57] | 1.5% |
| Polyoxyethylene (Mw = 400) oleate monoester [A-58] | 1.3% |
| Polyoxyethylene glyceryl triisostearate [A-32] | 5.9% |
| Polyoxyethylene isostearyl ether [A-34] | 5.3% |
| Polyoxyethylene(10 mol)cetyl ether [A-65] | 0.5% |
| Polyoxyethylene(EO 20 mol)sorbitan monostearate [A-72] | 0.0% |
| Polyoxyethylene(Mw = 600)oleate monoester [A-67] | 0.3% |
| Polyoxyethylene(Mw = 1000)dioleate [A-66] | 0.3% |
| Sodium dodecyl diphenyl ether disulfonate [A-8] | 79.1% |
| Sodium polyoxyethylene (2.5 mol) laurylether sulfate [A-11] | 53.2% |
| Sorbitan monooleate [A-43] | 3.5% |
| Sorbitan trioleate [A-49] | 2.4% |
| Stearylamine polyoxyethylene (15 mol) adduct [A-26] | 11.0% |
| Triethanol amine alkyl (C12, C13) sulfate [A-18] | 30.7% |
| polyoxyethylene-p-isooctyl phenol [A-16] | 36.7% |
